# Values joined by “and” are separate entries in the source; they are usually repeats but may differ in a detail not shown here. Identical values can stand only once.
# How the values were obtained:
# [1] = test system: human organs; experiment: Absorbed doses of radiation, estimates for human organs (OLINDA software); conditions: for radiation dose estimate, Adrenals: human organ: Adrenals; for radiation dose estimate, Brain: human organ: Brain; for radiation dose estimate, Esophagus: human organ: Esophagus; for radiation dose estimate, Eyes: human organ: Eyes; for radiation dose estimate, Gallbladder Wall: human organ: Gallbladder Wall; for radiation dose estimate, Heart Wall: human organ: Heart Wall; for radiation dose estimate, Kidneys: human organ: Kidneys; for radiation dose estimate, Left colon: human organ: Left colon; for radiation dose estimate, Liver: human organ: Liver; for radiation dose estimate, Lungs: human organ: Lungs; for radiation dose estimate, Osteogenic Cells: human organ: Osteogenic Cells; for radiation dose estimate, Pancreas: human organ: Pancreas; for radiation dose estimate, Prostate: human organ: Prostate; for radiation dose estimate, Rectum: human organ: Rectum; for radiation dose estimate, Red Marrow: human organ: Red Marrow; for radiation dose estimate, Right colon: human organ: Right colon; for radiation dose estimate, Salivary Glands: human organ: Salivary Glands; for radiation dose estimate, Small Intestine: human organ: Small Intestine; for radiation dose estimate, Spleen: human organ: Spleen; for radiation dose estimate, Stomach Wall: human organ: Stomach Wall; for radiation dose estimate, Testes: human organ: Testes; for radiation dose estimate, Thymus: human organ: Thymus; for radiation dose estimate, Thyroid: human organ: Thyroid; for radiation dose estimate, Urinary Bladder Wall: human organ: Urinary Bladder Wall; for radiation dose estimate, Effective Dose: human: Effective Dose; for radiation dose estimate, Total Body: human: Total Body
# Description: The AUC of drug metabolisms was calculated from the biodistribution (Bio-D) data and imported into the OLINDA software to generate doses of radiation absorbed by all the organs.
# [2] = Pharmacokinetics in blood of normal mice after single tail-vein injection; type: in vivo; conditions: for Blood % ID/g: normal mice, individual animals 1-4
# Description: Through single tail-vein injections into mice, the pharmacokinetics of ^68Ga-v (Example 9) and PSMA-617 in blood was studied.
# Each mouse was dosed at 50 μCi/100 μL, and blood samples were taken from the orbit 0.083, 0.25, 0.5, 1, 2, and 4 h post-dose (4 animals per time point). The blood samples were collected in pre-weighed sample tubes. The tubes were weighed and the weight of the blood samples was recorded. Then radioactivity counting was performed using a γ-counter. Meanwhile, a test sample was accurately diluted 100-fold, and 0.1 mL of the dilution was added to a counting tube and used as standard 1% ID (i.e., one percent of the injected dose). The radioactivity counts of the 1% ID standard and the biological samples were measured simultaneously on a γ-counter. The data on blood were expressed as the percentage of the radioactivity counts per gram of blood to the total injected dose (radioactivity counts) (% ID/g). Pharmacokinetic parameters were calculated from blood drug concentration data.
# [3] = target: rhPSMA (Homo sapiens (Human), UniProt Q04609); experiment: Affinity assays using enzyme activity method (Test Example 2); type: biochemical; conditions: for Ratio to PSMA-617: ratio of IC50 values; for IC50: rhPSMA 50 ng/well, substrate N-Acetyl-Asp-Glu, 37° C. 1 h
# Description: Buffer 1 (50 mM HEPES, 0.1 M NaCl, pH 7.5) was used to prepare a 0.4 μg/mL rhPSMA solution and a 40 μM solution of the substrate N-Acetyl-Asp-Glu. rhPSMA was mixed with the small molecules to be tested in a 96-well plate, with a constant rhPSMA content of 50 ng/well maintained. Meanwhile, the small molecules were step-wise diluted to final concentrations of 1 μM, 100 nM, 33.3 nM, 11.1 nM, 3.7 nM, 1.2 nM, 0.41 nM, 0.137 nM, 0.045 nM, and 0 nM. In addition, a positive control was set up using PSMA-617. The rhPSMA-small molecules were taken at 40 μL/well and well mixed with the 40 μM solution of the substrate N-Acetyl-Asp-Glu (40 μL/well). The mixtures were incubated at 37° C. in the dark for 1 h, were heated at 70° C. for 5 min to quench the reactions, and were cooled to room temperature. Buffer 2 (0.2 M NaOH, 0.1% beta-Mercaptoethanol) was used to prepare a 15 mM OPA solution. The OPA solution was added to the reaction systems at 80 μL/well and well mixed, and then the plate was incubated at room temperature for 10 min. The mixtures were taken at 100 μL/well and added to a 96-well Flat Black. With the excitation wavelength set to 330 nm and the emission wavelength to 465 nm, the intensity of signals was measured. IC50 values were obtained from dose-response curves.
# rhPSMA, sequence (Q04609 44-750): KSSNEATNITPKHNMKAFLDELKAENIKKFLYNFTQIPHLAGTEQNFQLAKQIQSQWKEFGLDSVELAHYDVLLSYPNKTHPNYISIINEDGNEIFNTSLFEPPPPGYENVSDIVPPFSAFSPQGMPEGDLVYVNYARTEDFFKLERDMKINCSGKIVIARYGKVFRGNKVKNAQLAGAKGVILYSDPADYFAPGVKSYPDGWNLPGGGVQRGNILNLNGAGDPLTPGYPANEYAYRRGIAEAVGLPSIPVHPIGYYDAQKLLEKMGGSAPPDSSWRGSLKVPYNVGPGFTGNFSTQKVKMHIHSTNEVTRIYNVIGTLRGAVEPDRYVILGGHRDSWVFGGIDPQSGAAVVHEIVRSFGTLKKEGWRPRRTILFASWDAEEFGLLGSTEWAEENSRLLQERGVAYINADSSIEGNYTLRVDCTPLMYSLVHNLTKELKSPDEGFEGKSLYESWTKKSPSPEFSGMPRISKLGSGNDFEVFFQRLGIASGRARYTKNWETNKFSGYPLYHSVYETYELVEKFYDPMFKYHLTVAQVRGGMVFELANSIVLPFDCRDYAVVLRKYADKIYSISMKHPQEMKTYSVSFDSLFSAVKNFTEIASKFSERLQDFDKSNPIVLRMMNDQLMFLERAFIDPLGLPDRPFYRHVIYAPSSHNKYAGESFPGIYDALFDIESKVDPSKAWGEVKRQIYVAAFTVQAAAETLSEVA
smiles,measurement,setting,value
"O=C([O-])CN1CCN(CC(=O)[O-])CCN(CC(=O)NCC2CCC(C(=O)N[C@@H](Cc3ccc4ccccc4c3)C(=O)NCCCC[C@H](NC(=O)N[C@@H](CCC(=O)O)C(=O)O)C(=O)O)CC2)CCN(CC(=O)[O-])CC1.[177Lu+3] (stereo partly drawn) [^177Lu-PSMA-617, reference compound]","radiation dose estimate, Adrenals",[1],2.43E−02 mSv/MBq
same,"radiation dose estimate, Brain",[1],1.38E−01 mSv/MBq
same,"radiation dose estimate, Esophagus",[1],3.39E−03 mSv/MBq
same,"radiation dose estimate, Eyes",[1],2.74E−03 mSv/MBq
same,"radiation dose estimate, Gallbladder Wall",[1],3.58E−03 mSv/MBq
same,"radiation dose estimate, Heart Wall",[1],2.41E−02 mSv/MBq
same,"radiation dose estimate, Kidneys",[1],1.47E+00 mSv/MBq
same,"radiation dose estimate, Left colon",[1],4.60E−03 mSv/MBq
same,"radiation dose estimate, Liver",[1],3.15E−02 mSv/MBq
same,"radiation dose estimate, Lungs",[1],1.12E−01 mSv/MBq
same,"radiation dose estimate, Osteogenic Cells",[1],5.58E−01 mSv/MBq
same,"radiation dose estimate, Pancreas",[1],4.36E−03 mSv/MBq
same,"radiation dose estimate, Prostate",[1],1.23E−03 mSv/MBq
same,"radiation dose estimate, Rectum",[1],1.49E−03 mSv/MBq
same,"radiation dose estimate, Red Marrow",[1],3.80E−03 mSv/MBq
same,"radiation dose estimate, Right colon",[1],2.74E−03 mSv/MBq
same,"radiation dose estimate, Salivary Glands",[1],2.18E−03 mSv/MBq
same,"radiation dose estimate, Small Intestine",[1],4.48E−02 mSv/MBq
same,"radiation dose estimate, Spleen",[1],9.86E−01 mSv/MBq
same,"radiation dose estimate, Stomach Wall",[1],8.22E−03 mSv/MBq
same,"radiation dose estimate, Testes",[1],5.04E−04 mSv/MBq
same,"radiation dose estimate, Thymus",[1],2.04E−03 mSv/MBq
same,"radiation dose estimate, Thyroid",[1],1.83E−03 mSv/MBq
same,"radiation dose estimate, Urinary Bladder Wall",[1],7.53E−04 mSv/MBq
same,"radiation dose estimate, Effective Dose",[1],4.74E−02 mSv/MBq
same,"radiation dose estimate, Total Body",[1],2.91E−02 mSv/MBq
"O=C([O-])CN1CCN(CC(=O)[O-])CCN(CC(=O)NCC2CCC(C(=O)N[C@@H](Cc3ccc4ccccc4c3)C(=O)NCCCC[C@H](NC(=O)N[C@@H](CCC(=O)O)C(=O)O)C(=O)O)CC2)CCN(CC(=O)[O-])CC1.[68Ga+3] (stereo partly drawn) [^68Ga-PSMA-617, reference compound]","radiation dose estimate, Adrenals",[1],7.49E−02 mSv/MBq
same,"radiation dose estimate, Brain",[1],7.80E−02 mSv/MBq
same,"radiation dose estimate, Esophagus",[1],1.79E−02 mSv/MBq
same,"radiation dose estimate, Eyes",[1],1.25E−02 mSv/MBq
same,"radiation dose estimate, Gallbladder Wall",[1],3.22E−02 mSv/MBq
same,"radiation dose estimate, Heart Wall",[1],3.93E−02 mSv/MBq
same,"radiation dose estimate, Kidneys",[1],5.47E−01 mSv/MBq
same,"radiation dose estimate, Left colon",[1],1.63E−02 mSv/MBq
same,"radiation dose estimate, Liver",[1],1.75E−01 mSv/MBq
same,"radiation dose estimate, Lungs",[1],1.21E−01 mSv/MBq
same,"radiation dose estimate, Osteogenic Cells",[1],3.14E−01 mSv/MBq
same,"radiation dose estimate, Pancreas",[1],1.86E−02 mSv/MBq
same,"radiation dose estimate, Prostate",[1],7.73E−03 mSv/MBq
same,"radiation dose estimate, Rectum",[1],1.83E−01 mSv/MBq
same,"radiation dose estimate, Red Marrow",[1],2.11E−02 mSv/MBq
same,"radiation dose estimate, Right colon",[1],1.34E−02 mSv/MBq
same,"radiation dose estimate, Salivary Glands",[1],9.39E−03 mSv/MBq
same,"radiation dose estimate, Small Intestine",[1],1.00E−01 mSv/MBq
same,"radiation dose estimate, Spleen",[1],1.79E−01 mSv/MBq
same,"radiation dose estimate, Stomach Wall",[1],1.91E−02 mSv/MBq
same,"radiation dose estimate, Testes",[1],3.69E−03 mSv/MBq
same,"radiation dose estimate, Thymus",[1],1.16E−02 mSv/MBq
same,"radiation dose estimate, Thyroid",[1],1.08E−02 mSv/MBq
same,"radiation dose estimate, Urinary Bladder Wall",[1],5.54E−03 mSv/MBq
same,"radiation dose estimate, Effective Dose",[1],4.68E−02 mSv/MBq
same,"radiation dose estimate, Total Body",[1],3.61E−02 mSv/MBq
same,Blood % ID/g,[2]; 0.083 h post-dose,4.22 % ID/g (2×) and 4.29 % ID/g and 3.66 % ID/g
same,content of the radioactive substance in the blood,"[2]; 0.25 h after the injections, mean of n=4",2.27±0.44 % ID/g
same,Blood % ID/g,[2]; 0.25 h post-dose,2.12 % ID/g and 2.53 % ID/g and 2.71 % ID/g and 1.73 % ID/g
same,Blood % ID/g,[2]; 0.5 h post-dose,0.55 % ID/g (2×) and 0.84 % ID/g and 0.86 % ID/g
same,Blood % ID/g,[2]; 1 h post-dose,0.14 % ID/g and 0.16 % ID/g and 0.10 % ID/g and 0.13 % ID/g
same,Blood % ID/g,[2]; 2 h post-dose,0.04 % ID/g and 0.07 % ID/g and 0.10 % ID/g and 0.13 % ID/g
same,Blood % ID/g,[2]; 4 h post-dose,0.29 % ID/g and 0.10 % ID/g and 0.09 % ID/g
same,half-life in the blood,[2]; blood of normal mice,13.2 min
same,AUCINF_obs,"[2]; blood of normal mice, 0-4 h",1.65 ± 0.13 h* % ID/g
same,AUClast,"[2]; blood of normal mice, 0-4 h",1.66 ± 0.14 h* % ID/g
same,Cl_obs,"[2]; blood of normal mice, 0-4 h",12.10 ± 1.0 μCi/h* % ID/g
same,Cmax,"[2]; blood of normal mice, 0-4 h",4.10 ± 0.29 % ID/g
same,MRTlast,"[2]; blood of normal mice, 0-4 h",19.8 ± 3 min
same,Vz_obs,"[2]; blood of normal mice, 0-4 h",4.06 ± 1.39 μCi/% ID/g
same,t1/2,"[2]; blood of normal mice, 0-4 h",13.2 min and 13.2 ± 1.2 min
"O=C(O)CC[C@H](NC(=O)N[C@@H](CCCCNC(=O)[C@H](Cc1ccc2ccccc2c1)NC(=O)[C@H]1CC[C@@]2(CC1)CN(C(=O)CN1CCN(CC(=O)O)CCN(CC(=O)O)CCN(CC(=O)O)CC1)CCO2)C(=O)O)C(=O)O [Example 11, (((S)-1-carboxy-5-((S)-3-(2-naphthyl)-2-((6R,9s)-4-(2-(4,7,10-tris(carboxymethyl)-1,4,7,10-tetraazacyclododecanyl)acetyl)-1-oxa-4-azaspiro[5.5]undecane-9-carboxamido)propanamido)pentyl)carbamoyl)-L-glutamic acid]",Ratio to PSMA-617,[3],7.85
same,IC50,[3],13 nM
O=C([O-])CN1CCN(CC(=O)[O-])CCN(CC(=O)N2CCO[C@]3(CC[C@H](C(=O)N[C@@H](Cc4ccc5ccccc5c4)C(=O)NCCCC[C@H](NC(=O)N[C@@H](CCC(=O)O)C(=O)O)C(=O)O)CC3)C2)CCN(CC(=O)[O-])CC1.[177Lu+3] [^177Lu-v],"absorbed dose of radiation, comparison with the labeled PSMA-617 in words",[1]; from Table 5,smaller than that resulting from ^177Lu-PSMA-617
same,"radiation dose estimate, Adrenals",[1],1.74E−02 mSv/MBq
same,"radiation dose estimate, Brain",[1],6.03E−02 mSv/MBq
same,"radiation dose estimate, Esophagus",[1],4.33E−03 mSv/MBq
same,"radiation dose estimate, Eyes",[1],2.21E−03 mSv/MBq
same,"radiation dose estimate, Gallbladder Wall",[1],4.67E−03 mSv/MBq
same,"radiation dose estimate, Heart Wall",[1],2.72E−02 mSv/MBq
same,"radiation dose estimate, Kidneys",[1],8.83E−01 mSv/MBq
same,"radiation dose estimate, Left colon",[1],4.81E−03 mSv/MBq
same,"radiation dose estimate, Liver",[1],7.43E−02 mSv/MBq
same,"radiation dose estimate, Lungs",[1],1.95E−01 mSv/MBq
same,"radiation dose estimate, Osteogenic Cells",[1],6.52E−01 mSv/MBq
same,"radiation dose estimate, Pancreas",[1],5.14E−03 mSv/MBq
same,"radiation dose estimate, Prostate",[1],1.29E−03 mSv/MBq
same,"radiation dose estimate, Rectum",[1],1.91E−03 mSv/MBq
same,"radiation dose estimate, Red Marrow",[1],4.16E−03 mSv/MBq
same,"radiation dose estimate, Right colon",[1],3.03E−03 mSv/MBq
same,"radiation dose estimate, Salivary Glands",[1],1.67E−03 mSv/MBq
same,"radiation dose estimate, Small Intestine",[1],1.73E−01 mSv/MBq
same,"radiation dose estimate, Spleen",[1],6.84E−01 mSv/MBq
same,"radiation dose estimate, Stomach Wall",[1],2.73E−02 mSv/MBq
same,"radiation dose estimate, Testes",[1],5.84E−04 mSv/MBq
same,"radiation dose estimate, Thymus",[1],2.83E−03 mSv/MBq
same,"radiation dose estimate, Thyroid",[1],2.41E−03 mSv/MBq
same,"radiation dose estimate, Urinary Bladder Wall",[1],9.14E−04 mSv/MBq
same,"radiation dose estimate, Effective Dose",[1],5.46E−02 mSv/MBq
same,"radiation dose estimate, Total Body",[1],3.07E−02 mSv/MBq
"O=C(O)CC[C@H](NC(=O)N[C@@H](CCCCNC(=O)[C@H](Cc1ccc2ccccc2c1)NC(=O)[C@H]1CC[C@]2(CC1)CN(C(=O)CN1CCN(CC(=O)O)CCN(CC(=O)O)CCN(CC(=O)O)CC1)CCO2)C(=O)O)C(=O)O [Example 9, (((S)-1-carboxy-5-((S)-3-(2-naphthyl)-2-((6S,9r)-4-(2-(4,7,10-tris(carboxymethyl)-1,4,7,10-tetraazacyclododecanyl)acetyl)-1-oxa-4-azaspiro[5.5]undecane-9-carboxamido)propanamido)pentyl)carbamoyl)-L-glutamic acid]","affinity, comparison in words","[3]; enzyme activity experiment, FIG. 1",better affinity than compound x of Example 11
same,Ratio to PSMA-617,[3],0.74
same,IC50,[3],1.23 nM

# Source: patent publication US20240366809A1, “INHIBITOR OF PROSTATE SPECIFIC MEMBRANE ANTIGEN AND PHARMACEUTICAL USE THEREOF” (TIANJIN HENGRUI MEDICINE CO., LTD., priority 2021, published 2024)
